Here are results for three compounds from patent US20250188162A1, “INHIBITOR OF INTERLEUKIN-1 RECEPTOR TYPE 1 FOR USE IN THE TREATMENT OF CANCER” (Buzzard Pharmaceuticals AB, priority 2022, published 2025).

Assay [1] has as its system NF-κB. The assay is described as follows: NF-κB ligand screen in pNGL-expressing RAW264.7 macrophages. The format is cell-based, murine. Particulars: recombinant VCAN 1 nM, compared with LPS 1 μg/mL. The source says:
(§1) FIG. 4. Tumor-secreted versican drives macrophage IKKβ, metastasis, and is a cancer biomarker. (A-E) Kras-mutant and wild-type cancer cell RNA and supernatants were subjected to microarray and LC-MSMS analyses, respectively. Shown are experimental design (A), top-20 over-represented transcripts (B) and secretory proteins (C), and Vcan/VCAN mRNA/protein expression (D, E). n=2-3/group; P, probability, two-way ANOVA; Bold letters, false discovery rate (FDR) q<0.05 compared with Kras-wild-type cells, two-stage linear step-up procedure of Benjamini, Hochberg, and Yekutieli. (F, G) Representative bioluminescent images (F) and data summary (G) from pNGL RAW264.7 cells exposed to lipopolysaccharide (LPS; 1 μg/mL) or recombinant proteins (1-2 nM). n=5/group; P, probability, two-way ANOVA; ****, P<0.0001 compared with other groups, Bonferroni post-tests. (H) Immunoblots of mouse BMDM exposed to VCAN. n=5/group. (I-M) LLC cells stably expressing control (shC) and anti-Vcan (shVcan) shRNA were validated and injected intrapleurally into NGL mice. […]
Mice were imaged for NF-κB reporter bioluminescent signal daily starting at day 10 post-tumor cell injection until sacrifice. […] Data were analyzed using Living Image v.4.2 (Perkin-Elmer, Waltham, MA) as described previously (9, 10, 15, 15, 22, 29, 39). […]

Assay [2] deals with IKKβ. Nature of the assay: immunoblots of mouse BMDM exposed to VCAN. The assay is classed as cell-based. Particulars: primary murine BMDM, recombinant human versican 1 nM.
Excerpt: as §1, with “mice. Shown are immunoblots (I), Vcan mRNA expression (J), and data summaries (K, L) and representative photographic and bioluminescent images (M) taken 14 days post-tumor cells. (I, J) n=5/group; (K-M) n=16/group; P, probability, unpaired Student's t-test.” for “mice.”

Assay [3] relates to NF-κB. The assay is described as follows: NF-κB reporter response of pNGL RAW264.7 macrophages to tumor-conditioned media with bortezomib pre-treatment. Particulars: pre-treatment 1 μg/mL (3 μM) for 1 hour. The assay is classed as cell-based, murine. The procedure:
FIG. 3. Tumor-secreted factors drive IKKβ activation, differentiation, and IL-1β secretion in macrophages. (A) Color-coded cancer cells with Kras mutation status. (B-E) Bioluminescent images with pseudocolor scale (B, E), immunoblots (C), and data summaries (D, E) from exposure of RAW264.7 macrophages stably expressing pNGL (B-D) and murine bone marrow derived macrophages (BMDM) obtained from NGL mice after one-week 100 ng/ml M-CSF exposure (E) to cell-free tumor-conditioned media or DMEM (white boxes) with or without bortezomib pre-treatment (1 μg/mL˜3 µM for 1 hour). (D, E) n=5/group; P, probability, one or two-way ANOVA; **** and ####, P<0.0001 compared with other groups or saline-treated cells, respectively, Bonferroni post-tests. (F) Flow cytometry-assessed differentiation marker expression of murine bone marrow cells before (day 0) and after (day 7) one-week M-CSF exposure. (G) Microarray strategy and top-five differentially expressed genes (ΔGE) of murine BMDM compared with cancer cells (ΔGE1) and of tumor-conditioned BMDM compared with naïve BMDM (ΔGE2). n=5/group; P, probability, one-way ANOVA. (H) Bioluminescent images and data summary of NGL, NGL; Tnf−/−, and NGL;Il1b−/− mice 14 days post-pleural injection of LLC cells. n=13/group; P, probability, one-way ANOVA; ** and ***, P<0.01 and P<0.001, respectively, compared with NGL mice, Bonferroni post-tests. […]

Assay [4] has as its system non-small cell lung cancer (NSCLC). The note with it: second/third-line with docetaxel, irrespective of histologic subtype and driver mutation; cited from earlier work.
Assay [5] deals with incident lung cancer. Particulars: exploratory analysis of CANTOS; cited from earlier work.

For “VCAN: recombinant human active versican, TLR2 ligand glycoprotein”, the “macrophage NF-κB-driven transcription” value in assay [1] is listed as “potently activates macrophage NF-κB-driven transcription to the same degree as the TLR4 ligand lipopolysaccharide (LPS)”. For the same compound, the IKKβ induction entry in assay [2] is given as “induced IKKβ in primary murine BMDM”. For `CC(C)C[C@H](NC(=O)[C@H](Cc1ccccc1)NC(=O)c1cnccn1)B(O)O` [bortezomib], the “NF-κB response to KrasMUT tumor-conditioned media” value in assay [3] was “attenuated”. As for “canakinumab: anti-IL-1β neutralizing monoclonal antibody”, the trial outcome in assay [4] is reported as “negative”. Moreover, the “effect against incident lung cancer” value in assay [5] was “strong protective effects against incident lung cancer”.
